Where no end group is shown, it is not given here.
Legend:
293T cells = test: MTS cytotoxicity assay, 293T cells; type: cell-based; conditions: 12 or 24 hours
Method: (§1) HEK293T or RAW264.7 cells were seeded in 96-well plates (10,000 per well) before treatment with Tat-Epep (20-200 μM) for 0-24 hours. Cytotoxicity was determined in a colorimetric assay using MTS [3-(4,5-dimethylthiazole-2-yl)-5-(carboxymethoxyphenyl)-2-(4-sulfophenyl)-2H-tetrazolium salt] (Promega) 20 μL of MTS was added to each well at 37° C. for 1 hour. Optical density at 490 nm was recorded using an automated microplate reader (BioTek). Background absorbance at 630 nm was subtracted from each sample reading.

RAW264.7 cells = test: MTS cytotoxicity assay, RAW264.7 cells; type: cell-based; conditions: various concentrations, 12 hours
Method: as §1

VSV = type: cell-based, vesicular stomatitis virus (VSV)
VSV-Indiana = test system: VSV-Indiana; parameters: species or system mice; conditions: in vivo, iv
[1] = test system: VSV-infected RAW264.7 cells; type: cell-based
[2] = target: T1, interaction between PCBP2 and MAVS (Homo sapiens, UniProt Q15366); test: GST precipitation of the PCBP2-MAVS interaction in 293T cells with various amounts of EPRS; type: cell-based; conditions: 293T cells transfected with MAVS and PCBP2, various amounts of EPRS
T1 construct: FLAG-, Strep-, His-, or GST-tagged full-length and truncated PCBP2 were also prepared; expressed in transfected cells; host or cells: 293T
T1 sequence (Q15366 whole entry, the tested form may be a part): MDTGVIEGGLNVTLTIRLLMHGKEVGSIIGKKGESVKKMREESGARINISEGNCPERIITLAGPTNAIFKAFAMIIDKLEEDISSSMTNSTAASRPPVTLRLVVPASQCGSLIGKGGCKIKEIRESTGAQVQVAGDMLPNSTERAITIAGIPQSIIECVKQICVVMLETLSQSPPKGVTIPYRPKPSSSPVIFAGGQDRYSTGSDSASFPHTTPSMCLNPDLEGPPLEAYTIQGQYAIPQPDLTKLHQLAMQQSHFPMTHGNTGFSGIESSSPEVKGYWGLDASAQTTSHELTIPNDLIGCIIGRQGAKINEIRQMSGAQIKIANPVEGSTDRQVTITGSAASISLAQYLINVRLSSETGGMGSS

MAVS [3] = conditions: 293T cells expressing EPRS, PCBP2, ITCH, Ub; MG-132
[4] = target: T2, binding of PCBP2 to ITCH E3 ligase (Homo sapiens, UniProt Q15366); test: GST precipitation of the PCBP2-ITCH interaction in the presence of EPRS; type: cell-based
T2 construct: FLAG-, Strep-, His-, or GST-tagged full-length and truncated PCBP2 were also prepared; expressed in transfected cells
T2 sequence (Q15366 whole entry, the tested form may be a part): as above
T2 sequence (Q96J02 whole entry partner, the tested form may be a part): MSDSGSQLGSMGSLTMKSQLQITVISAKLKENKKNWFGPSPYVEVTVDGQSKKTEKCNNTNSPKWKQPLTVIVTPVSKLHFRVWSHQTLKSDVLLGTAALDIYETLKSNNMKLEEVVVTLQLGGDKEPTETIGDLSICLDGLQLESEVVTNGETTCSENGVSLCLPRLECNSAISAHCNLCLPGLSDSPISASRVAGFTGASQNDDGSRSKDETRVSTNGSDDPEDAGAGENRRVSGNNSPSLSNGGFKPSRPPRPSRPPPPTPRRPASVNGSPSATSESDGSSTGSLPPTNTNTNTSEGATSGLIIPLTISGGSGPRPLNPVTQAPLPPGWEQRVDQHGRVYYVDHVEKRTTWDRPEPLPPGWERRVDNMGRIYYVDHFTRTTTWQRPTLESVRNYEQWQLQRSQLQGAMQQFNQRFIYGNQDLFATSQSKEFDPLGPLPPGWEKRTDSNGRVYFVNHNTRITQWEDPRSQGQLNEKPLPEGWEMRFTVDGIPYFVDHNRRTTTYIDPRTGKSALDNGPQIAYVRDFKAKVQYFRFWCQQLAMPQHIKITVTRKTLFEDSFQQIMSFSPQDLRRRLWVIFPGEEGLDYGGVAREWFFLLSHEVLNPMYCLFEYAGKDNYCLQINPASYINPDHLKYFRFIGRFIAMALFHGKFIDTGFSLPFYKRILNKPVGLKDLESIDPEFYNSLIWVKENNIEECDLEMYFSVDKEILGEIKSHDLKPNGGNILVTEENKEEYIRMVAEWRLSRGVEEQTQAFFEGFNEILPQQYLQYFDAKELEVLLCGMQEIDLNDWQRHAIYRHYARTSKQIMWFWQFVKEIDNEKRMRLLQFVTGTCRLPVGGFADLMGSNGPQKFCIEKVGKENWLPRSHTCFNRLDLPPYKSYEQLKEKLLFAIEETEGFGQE

MAVS [5] = conditions: PCBP2-transfected 293T cells, various concentrations of EPRS
Method: For immunoblotting analysis, cells were lysed with RIPA buffer (20 mM Tris-HCl, pH 7.4, 150 mM NaCl, 1% NP-40, and 1 mM EDTA) containing a protease inhibitor cocktail and a phosphatase inhibitor cocktail (Roche). Whole cell lysates (50 μg to 100 μg) were subjected to SDS-PAGE, followed by immunoblotting with respective antibodies.

PCBP2 = target: T3, PCBP2 (Homo sapiens, UniProt Q15366); test: Co-IP of EPRS or its fragments with PCBP2 in 293T cells; type: binding; conditions: 293T cells transfected with PCBP2 and EPRS plasmids
T3 construct: FLAG-, Strep-, His-, or GST-tagged full-length and truncated PCBP2 were also prepared; expressed in transfected cells; host or cells: 293T
T3 sequence (Q15366 whole entry, species assumed, the tested form may be a part): as the sequence (Q15366 whole entry, the tested form may be a part) above
Method: For immunoprecipitation, cell lysates were pre-cleared by incubation with protein A beads for 1 hour at 4° C. The pre-cleared cell lysates were incubated overnight at 4° C. with the respective antibodies, followed by incubation with 30 μL of protein A/G PLUS-agarose beads for 3 to 4 hours at 4° C. The immunoprecipitates were then collected and washed five times with a lysis buffer before immunoblotting analysis.

PCBP2 KH1 (aa 11-82) = PCBP2 KH1 (aa 11-82) (Homo sapiens, UniProt Q15366); test: In vitro pull-down of purified EPRS domains with PCBP2 KH1; conditions: purified His-tagged EPRS domains, GST-fused PCBP2 KH1
Chain of PCBP2 KH1 (aa 11-82) (Q15366 11-82): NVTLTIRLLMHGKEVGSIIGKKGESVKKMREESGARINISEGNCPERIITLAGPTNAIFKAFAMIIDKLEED

Question: How did the “viability of 293T cells” value (293T cells) turn out when “YGRKKRRQRRRGGDVSTTKARVAPEKKQDVGKFVELPGAEMG [Tat-Epep]” was run?
Answer: no effect on the viability

Question: What about the “viability of RAW264.7 cells” value (RAW264.7 cells) of the same molecule?
Answer: no effect on the viability

Question: Which “viral replication (fluorescence images)” value (VSV) does the source give for “YGRKKRRQRRR-GG-KWDVSTTKARVAPEKKQDVGK (YGRKKRRQRRRGGKWDVSTTKARVAPEKKQDVGK; New Tat-Epep)” here?
Answer: stronger inhibitory effect

Question: And the “VSV viral titers in mouse brains” value (VSV-Indiana)?
Answer: decrease VSV viral titers in the mouse brains

Question: And the “increase in IFN-β secretion as compared with Tat-Epep” value [1]?
Answer: 2- to 3 fold

Question: What about the “increase in IL-6 secretion as compared with Tat-Epep” value [1] of the same molecule?
Answer: 2- to 3 fold

Question: With “EPRS: glutamyl-prolyl-tRNA synthetase protein, 1512 aa, SEQ ID NO: 63; expressed from plasmid or purified” as the molecule, how does the “interaction between PCBP2 and MAVS” value [2] read?
Answer: significantly reduced

Question: And the “PCBP2-mediated ubiquitination of exogenous MAVS-FLAG” value (MAVS [3])?
Answer: inhibited PCBP2-mediated ubiquitination of MAVS in a dose-dependent manner

Question: And the “endogenous ubiquitination of MAVS” value (MAVS [3])?
Answer: significantly attenuated in the presence of EPRS

Question: And the “binding of PCBP2 to ITCH E3 ligase” value [4]?
Answer: did not disrupt the binding of PCBP2 to ITCH E3 ligase

Question: What about the “PCBP2-induced degradation of endogenous MAVS” value (MAVS [5]) of the same molecule?
Answer: rescued from this degradation

Question: And the “PCBP2-induced degradation of exogenous MAVS” value (MAVS [5])?
Answer: rescued from this degradation

B1: EPRS (aa 1-196): N-terminal EPRS fragment containing GST-like domain and linker region L1 (protein)
chain: MATLSLTVNSGDPPLGALLAVEHVKDDVSISVEEGKENILHVSENVIFTDVNSILRYLARVATTAGLYGSNLMEHTEIDHWLEFSATKLSSCDSFTSTINELNHCLSLRTYLVGNSLSLADLCVWATLKGNAAWQEQLKQKKAPVHVKRWFGFLEAQQAFQSVGTKWDVSTTKARVAPEKKQDVGKFVELPGAEMG
Question: B1 was tested. Which “interaction with PCBP2 (co-IP)” value (PCBP2) did it give?
Answer: crucial for the interaction with PCBP2

Question: What about the “direct interaction with PCBP2 KH1 (in vitro precipitation)” value (PCBP2 KH1 (aa 11-82)) of the same molecule?
Answer: specifically interacted

Source: US11173192B2 (priority 2016, dated 2021)
